From patent publication US20240391862A1, “(1,4,5-TRISUBSTITUTED-1H-PYRAZOL-3-YL)OXY-2-ALKOXY ALKYL ACIDS AND THEIR DERIVATIVES, THEIR SALTS AND THEIR USE AS HERBICIDAL AGENTS” (Bayer AKtiengesellschaft, priority 2021, published 2024)

Legend:
DIGSA = test: Post-emergence herbicidal effect, greenhouse pot test; assay type: in vivo, Digitaria sanguinalis; settings: visual rating about 3 weeks after treatment
Outline: (§1)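 Weeds sown in sandy loam, greenhouse-grown 2–3 weeks, then sprayed at one-leaf stage with WP or EC formulations in water plus 0.5% additive at 600 l/ha. Rates 20 to 320 g/ha. Visual rating after about 3 weeks versus untreated controls (100% = plants dead, 0% = like control).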

POLCO = test: as above; assay type: in vivo, Fallopia convolvulus
Outline: as §1

ECHCG = test: as above; assay type: in vivo, Echinochloa crus-galli; settings: for Post-emergence effect against ECHCG: 20 g/ha, visual rating about 3 weeks after treatment
Outline: as §1

SETVI = test: as above; assay type: in vivo, Setaria viridis
Outline: as §1

PHBPU = test: as above; assay type: in vivo, Ipomoea purpurea
Outline: as §1

VERPE = test: as above; assay type: in vivo, Veronica persica
Outline: as §1

ABUTH = test: as above; assay type: in vivo, Abutilon theophrasti; settings: visual rating about 3 weeks after treatment
Outline: as §1

MATIN = test: as above; assay type: in vivo, Tripleurospermum inodorum
Outline: as §1

VIOTR = test: as above; assay type: in vivo, Viola tricolor
Outline: as §1

LOLRI = test: as above; assay type: in vivo, Lolium rigidum; settings: 320 g/ha
Outline: as §1

AVEFA = test: as above; assay type: in vivo, Avena fatua; settings: 320 g/ha, visual rating about 3 weeks after treatment
Outline: as §1

ALOMY = test: as above; assay type: in vivo, Alopecurus myosuroides; settings: visual rating about 3 weeks after treatment
Outline: as §1

ORYSA = test: Post-emergence herbicidal effect and crop plant compatibility, greenhouse pot test; assay type: in vivo, Oryza sativa; settings: 20 g/ha, visual rating about 3 weeks after treatment, crop plant
Text: • ALOMY: Alopecurus myosuroides SETVI: Setaria viridis • AVEFA: Avena fatua POLCO: Fallopia convolvulus • AMARE: Amaranthus retroflexus ECHCG: Echinochloa crus-galli • LOLRJ: Lolium rigidum STEME: Stellaria media • VERPE: Veronica persica MATIN: Tripleurospermum inodorum • DIGSA: Digitaria sanguinalis ABUTH: Abutylon threophrasti • TRZAS: Triticum aestivum VIOTR: Viola tricolor • BRSNW: Brassica napus ZEAMX: Zea mays • PHBPU: Ipomoea purpurea GLXMA: Glycine max • ORYSA: Oryza sativa HORMU: Hordeum murinum
Seeds of monocotyledonous and dicotyledonous weeds and crop plants are placed in sandy loam in plastic or organic planting pots, covered with soil and cultivated in a greenhouse under controlled growth conditions. 2 to 3 weeks after sowing, the trial plants are treated at the one-leaf stage. The compounds of the invention, formulated in the form of wettable powders (WP) or as emulsion concentrates (EC), are then sprayed onto the green parts of the plants as aqueous suspension or emulsion with addition of 0.5% additive at a water application rate of 600 l/ha (converted). After the test plants have been kept in the greenhouse under optimum growth conditions for about 3 weeks, the activity of the preparations is rated visually in comparison to untreated controls. For example, 100% activity=the plants have died, 0% activity=like control plants.
Tables 20a to 38c below show the effects/crop compatibilities of selected compounds of the general formula (I) on various harmful plants at an application rate corresponding to 20 to 320 g/ha, which were obtained by the trial procedure specified above.

AMARE = test: Post-emergence herbicidal effect, greenhouse pot test; assay type: in vivo, Amaranthus retroflexus; settings: visual rating about 3 weeks after treatment
Outline: as §1

ZEAMX = test: Post-emergence herbicidal effect and crop plant compatibility, greenhouse pot test; assay type: in vivo, Zea mays; settings: one-leaf stage, rated visually after about 3 weeks vs untreated controls
Outline: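 Sandy loam pots, greenhouse. One-leaf stage (2–3 wk after sowing) foliar spray; WP/EC in water + 0.5% additive, 600 l/ha; 20–320 g/ha. Visual score ~3 wk, 0–100% vs untreated.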

various unwanted plants [1] = test: Pre-emergence effect against various unwanted plants (PE): comparative test of I-01 with compounds from WO2020/245044 (Tables 40a, 40b) and summary statements; assay type: in vivo; settings: comparative test
Text: Seeds of monocotyledonous and dicotyledonous weed plants and crop plants are placed in plastic or organic planting pots and covered with soil. The compounds of the invention, formulated in the form of wettable powders (WP) or as emulsion concentrates (EC), are then applied to the surface of the covering soil as aqueous suspension or emulsion with addition of 0.5% additive at a water application rate equivalent to 600 l/ha. After the treatment, the pots are placed in a greenhouse and kept under good growth conditions for the trial plants. After about 3 weeks, the effect of the preparations is scored visually in comparison with untreated controls as percentages. For example, 100% activity=the plants have died, 0% activity=like control plants. Tables 40a and 40b below show the effects of the inventive compound (I-01) with structurally similar compounds (from WO2020/245044) on various harmful plants at an application rate corresponding to 320 g/ha or less, which have been obtained by the trial procedure specified hereinafter. The inventive compound (I-01) differs here by variance of a significant structural feature from the structurally similar compound with regard to the R^2 radical. Seeds of monocotyledonous and dicotyledonous weed plants and crop plants are placed in plastic or organic planting pots and covered with soil. The compounds of the invention, formulated in the form of wettable powders (WP) or as emulsion concentrates (EC), are then applied to the surface of the covering soil as aqueous suspension or emulsion with addition of 0.5% additive at a water application rate equivalent to 600 l/ha. After the treatment, the pots are placed in a greenhouse and kept under good growth conditions for the trial plants. After about 3 weeks, the effect of the preparations is scored visually in comparison with untreated controls as percentages. For example, 100% activity=the plants have died, 0% activity=like control plants. Effects/crop compatibilities of selected compounds (Table 39) on various harmful plants at an application rate corresponding to 80 to 320 g/ha that have been obtained by the trial procedure specified hereinabove are shown in Tables 40a and 40b below.

various unwanted plants [2] = test: Post-emergence effect against various unwanted plants (PO): comparative test of I-01 with compounds from WO2020/245044 (Tables 41a, 41b) and summary statements; assay type: in vivo; settings: 80 g/ha, comparative test
Experimental: Seeds of monocotyledonous and dicotyledonous weeds and crop plants are placed in sandy loam in plastic or organic planting pots, covered with soil and cultivated in a greenhouse under controlled growth conditions. 2 to 3 weeks after sowing, the trial plants are treated at the one-leaf stage. The compounds of the invention, formulated in the form of wettable powders (WP) or as emulsion concentrates (EC), are then sprayed onto the green parts of the plants as aqueous suspension or emulsion with addition of 0.5% additive at a water application rate of 600 l/ha (converted). After the test plants have been kept in the greenhouse under optimum growth conditions for about 3 weeks, the activity of the preparations is rated visually in comparison to untreated controls. For example, 100% activity=the plants have died, 0% activity=like control plants. […] Tables 41a and 41b below show the effects of the inventive compound (I-01) with structurally similar compounds (WO2020/245044) on various harmful plants at an application rate corresponding to 320 g/ha or less, which have been obtained by the trial procedure specified hereinafter. The inventive compound (I-01) differs here by variance of a significant structural feature from the structurally similar compound with regard to the R^2 radical. Seeds of monocotyledonous and dicotyledonous weeds and crop plants are placed in sandy loam in plastic or organic planting pots, covered with soil and cultivated in a greenhouse under controlled growth conditions. 2 to 3 weeks after sowing, the trial plants are treated at the one-leaf stage. The compounds of the invention, formulated in the form of wettable powders (WP) or as emulsion concentrates (EC), are then sprayed onto the green parts of the plants as aqueous suspension or emulsion with addition of 0.5% additive at a water application rate of 600 l/ha (converted). After the test plants have been kept in the greenhouse under optimum growth conditions for about 3 weeks, the activity of the preparations is rated visually in comparison to untreated controls. For example, 100% activity=the plants have died, 0% activity=like control plants. Effects/crop compatibilities of selected compounds (see Table 39) on various harmful plants at an application rate corresponding to 80 to 320 g/ha that have been obtained by the trial procedure specified hereinafter are shown in Tables 41a and 41b below.

Structure (SMILES)	Post-emergence effect against DIGSA (DIGSA; 320 g/ha)	Post-emergence effect against POLCO in % (POLCO; 80 g/ha)	Post-emergence effect against POLCO in % (POLCO; 320 g/ha)	Post-emergence effect against ECHCG (ECHCG)	Post-emergence effect against ECHCG in % (ECHCG; 80 g/ha)	Post-emergence effect against ECHCG in % (ECHCG; 320 g/ha)	Post-emergence effect against SETVI in % (SETVI; 80 g/ha)	Post-emergence effect against SETVI in % (SETVI; 320 g/ha)	Post-emergence effect against PHBPU in % (PHBPU; 320 g/ha)	Post-emergence effect against VERPE in % (VERPE; 80 g/ha)	Post-emergence effect against VERPE in % (VERPE; 320 g/ha)	Post-emergence effect against ABUTH (ABUTH; 320 g/ha)	Post-emergence effect against MATIN in % (MATIN; 80 g/ha)	Post-emergence effect against MATIN in % (MATIN; 320 g/ha)	Post-emergence effect against VIOTR in % (VIOTR; 320 g/ha)	Post-emergence effect against AVEFA (AVEFA)	Post-emergence effect against ALOMY (ALOMY; 320 g/ha)	Post-emergence effect against ORYSA (ORYSA)	Post-emergence effect against AMARE (AMARE; 320 g/ha)	Post-emergence effect at 20 g/ha against ZEAMX in % (ZEAMX)	further results
COC(=O)C(C)COC(=O)C(OC)Oc1nn(-c2ccccc2F)c(-c2ccc(F)nc2)c1Br (racemic) [Example I-10]	90%	80%	80%	80%	90%	100%	80%	90%	90%	90%	90%	90%	80%	90%	90%	80%	90%	10%	100%	20%	Post-emergence effect against POLCO in % (POLCO; 20 g/ha): 80%; Post-emergence effect against PHBPU in % (PHBPU; 80 g/ha): 80%; Post-emergence effect against ABUTH (ABUTH; 20 g/ha): 80%; Post-emergence effect against ABUTH (ABUTH; 80 g/ha): 90%; Post-emergence effect against MATIN in % (MATIN; 20 g/ha): 80%; Post-emergence effect against VIOTR in % (VIOTR; 80 g/ha): 80%; Post-emergence effect against LOLRI in % (LOLRI): 90%; Post-emergence effect against AMARE (AMARE; 20 g/ha): 80%; Post-emergence effect against AMARE (AMARE; 80 g/ha): 80%
COC(=O)CCOC(=O)C(OC)Oc1nn(-c2ccccc2F)c(-c2ccc(F)nc2)c1Br (single isomer, unassigned) [Example I-13]	90%	80%	80%	80%	90%	90%	80%	90%	90%	80%	80%	80%	80%	80%	80%	80%	90%	10%	80%	10%	Post-emergence effect against DIGSA (DIGSA; 80 g/ha): 90%; Post-emergence effect against LOLRI in % (LOLRI): 80%; Post-emergence effect against ALOMY (ALOMY; 80 g/ha): 80%; Post-emergence effect at 80 g/ha against ZEAMX in % (ZEAMX): 20%
COC(=O)CCOC(=O)C(OC)Oc1nn(-c2ccccc2F)c(-c2ccc(F)nc2)c1Br (single isomer, unassigned) [Example I-20]	90%	–	80%	–	80%	90%	80%	80%	90%	80%	90%	90%	80%	90%	90%	90%	80%	0%	90%	0%	Post-emergence effect against PHBPU in % (PHBPU; 80 g/ha): 80%; Post-emergence effect against ABUTH (ABUTH; 80 g/ha): 80%; Post-emergence effect against VIOTR in % (VIOTR; 80 g/ha): 80%; Post-emergence effect against AMARE (AMARE; 80 g/ha): 80%; Post-emergence effect at 80 g/ha against ZEAMX in % (ZEAMX): 20%
CCOC(=O)C(F)Oc1nn(-c2ccccc2F)c(-c2ccc(F)nc2)c1Br (stereo not drawn) [C]	–	–	–	–	–	–	–	–	–	–	–	–	–	–	–	–	–	–	–	–	Pre-emergence effect, Effect %, ALOMY (various unwanted plants [1]; ALOMY, 320 g/ha): 80%; Pre-emergence effect, Effect %, ECHCG (various unwanted plants [1]; 80 g/ha): 0%; Pre-emergence effect, Effect %, ECHCG (various unwanted plants [1]; 320 g/ha): 70%; Pre-emergence effect, Effect %, LOLRI (various unwanted plants [1]; 80 g/ha): 10%; Pre-emergence effect, Effect %, LOLRI (various unwanted plants [1]; 320 g/ha): 90%; Pre-emergence effect, Effect %, MATIN (various unwanted plants [1]; 80 g/ha): 70%; Pre-emergence effect, Effect %, MATIN (various unwanted plants [1]; 320 g/ha): 80%; Pre-emergence effect, Effect %, POLCO (various unwanted plants [1]; POLCO, 80 g/ha): 50%; Pre-emergence effect, Effect %, SETVI (various unwanted plants [1]; SETVI, 320 g/ha): 70%; Post-emergence effect, Effect %, ALOMY (various unwanted plants [2]; ALOMY): 50%; Post-emergence effect, Effect %, AVEFA (various unwanted plants [2]; AVEFA): 60%; Post-emergence effect, Effect %, ECHCG (various unwanted plants [2]; ECHCG): 80%; Post-emergence effect, Effect %, LOLRI (various unwanted plants [2]; LOLRI): 10%; Post-emergence effect, Effect %, SETVI (various unwanted plants [2]; SETVI): 70%
